Measured values: patent US7642358B2, “Substituted phenylacetic acids” (Metabolex, Inc., priority 2002, dated 2010)

System: C57BL/6J ob/ob mice
Experiment: Anti-diabetic activity (plasma glucose lowering) in C57BL/6J ob/ob mice, oral gavage
Format: in vivo, mouse
Details: male C57BL/6J ob/ob mice, oral gavage once a day for 1-4 days; for minimal effective dose: Mus musculus, dose effective for plasma glucose lowering, blood taken 6 hours after each dose, read-out: Potency
Procedure: The anti-diabetic activities of the compounds were evaluated in the C57BL/6j ob/ob Mice model.
Male, 7-9 weeks old, C57BL/6J ob/ob mice were purchased from The Jackson Laboratory (Bar Harbor, Me., USA). Animals were housed (4-5 mice/cage) under standard laboratory conditions at 22±3° C. temperature and 50±20% relative humidity, and were maintained on a diet of Purina rodent chow and water ad libitum. Prior to treatment, blood was collected from the tail vein of each animal. Mice that had non-fasting plasma glucose levels between 250 and 500 mg/dl were used. Each treatment group consisted of 8-10 mice that were distributed so that the mean glucose levels were equivalent in each group at the start of the study. Mice were dosed orally by gavage once a day for 1-4 days with vehicle and one or more dose of test compound at a dose ranging from 5 to 125 mg/kg. Compounds were delivered in a liquid formulation containing 5% (v/v) dimethyl sulfoxide (DMSO), 1% (v/v) Tween 80® and 0.9% (w/v) methylcellulose. The gavage volume was 10 ml/kg. Blood samples were taken at 6 hours after the each dose and analyzed for plasma glucose. Food intake and body weight were measured daily. Plasma glucose concentrations were determined colorimetrically using a commercial glucose oxidase method (Sigma Chemical Co, St. Louis, Mo., USA). Significant difference between groups (comparing drug-treated to vehicle-treated) was evaluated using the Student unpaired t-test.
FIG. 6 illustrates the anti-diabetic effects of selected compounds of the present invention. Table 15 provides the relative potency of some of these selected compounds. Compounds that are effective for glucose lowering at the dose of ≧125 mg/kg are assigned a potency of +; compounds that are effective for glucose lowering at a dose of >25 mg/kg but <125 mg/kg are assigned a potency of ++; compounds that are effective for glucose lowering at a dose of ≦25 mg/kg are assigned a potency of +++. For example, a compound at 25 mg/kg that lowered the animal glucose level from 400 mg/dL (vehicle group value) to 250 mg/dL, is assigned the potency of +++.

Structure (SMILES)	Insulin Level compared with vehicle	minimal effective dose [mg/kg]
CC(Oc1ccc(C(F)(F)F)cc1-c1nc2ccccc2o1)(C(=O)O)c1ccccc1 (centres unmarked) [Ia-366]	Lower	–
O=C(O)C(Oc1ccc(C(F)(F)F)cc1-n1nc2ccccc2n1)c1ccc(C(F)(F)F)cc1 (centres unmarked) [XI-51]	Lower	≤ 25
O=C(O)C(Oc1ccc(C(F)(F)F)cc1-n1nc2ccccc2n1)c1cccc(C(F)(F)F)c1 (centres unmarked) [XI-47]	Lower	≤ 25
Cc1ccc(OC(C(=O)O)c2ccc(C(F)(F)F)cc2)c(-n2nc3ccccc3n2)c1 (centres unmarked) [XI-6]	Lower	≤ 25
O=C(O)C(Oc1ccc(C(F)(F)F)cc1-c1nc2ccccc2o1)c1cccc(C(F)(F)F)c1 (centres unmarked) [Example I-89]	Lower	≤ 25
O=C(O)C(Oc1ccc(Cl)cc1-c1nc2ccccc2o1)c1ccc(Cl)cc1 (centres unmarked) [Example I-190]	Lower	≤ 25
CC(Oc1ccc(C(F)(F)F)cc1-n1nc2ccccc2n1)(C(=O)O)c1ccc(C(F)(F)F)cc1 (centres unmarked) [XIa-51]	Lower	≤ 25
O=C(O)C(Oc1ccc(Cl)cc1-n1nc2ccccc2n1)c1ccc(C(F)(F)F)cc1 (centres unmarked) [XI-24]	Lower	≤ 25
Cc1ccc(OC(C)(C(=O)O)c2ccc(Cl)cc2)c(-n2nc3ccccc3n2)c1 (centres unmarked) [XIa-5]	Lower	≤ 25
COc1ccc(C(Oc2ccc(Cl)cc2-c2nc3ccccc3o2)C(=O)O)cc1 (centres unmarked) [Example I-193]	Lower	≤ 25
O=C(O)C(Oc1ccc(C(F)(F)F)cc1-c1nc2ccccc2o1)c1ccccc1 (centres unmarked) [Example I-92]	Lower	≤ 25
O=C(O)C(Oc1ccccc1-c1nc2ccccc2o1)c1cccc(C(F)(F)F)c1 (centres unmarked) [Example I-3]	Lower	≥ 125
O=C(O)C(Oc1ccccc1-c1nc2ccccc2o1)c1ccc(Cl)cc1 (centres unmarked) [Example I-1]	Lower	25 to 125
O=C(O)[C@@H](Oc1ccc(C(F)(F)F)cc1-c1nc2ccccc2o1)c1ccccc1 [Example I-369]	Lower	≤ 25
Cc1ccc(OC(C(=O)O)c2cccc(C(F)(F)F)c2)c(-n2nc3ccccc3n2)c1 (centres unmarked) [XI-2]	Lower	≤ 25
O=C(O)C(Oc1ccc(Cl)cc1-c1nc2ccccc2o1)c1cccc(C(F)(F)F)c1 (centres unmarked) [Example I-191]	Lower	≤ 25
O=C(O)C(Oc1ccc(Cl)cc1-c1nc2ccccc2o1)c1cccc(Cl)c1 (centres unmarked) [Example I-194]	Lower	≤ 25
CC(Oc1ccc(C(F)(F)F)cc1-c1nc2ccccc2o1)(C(=O)O)c1ccccc1 (centres unmarked) [Ia-365]	Lower	≤ 25
